From ChEMBL document CHEMBL1201862, “PubChem BioAssay data set” (2004)
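Following 48 hours of exposure in 96-well plates, responses at five concentrations were used to interpolate endpoints linearly. At the GI50, growth is halved.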 Calls of active or inactive are those of the source. No stated cut-off is given here; in the data, active = GI50 up to about 1.1 µM and inactive = higher.

Key:
Test in all cases: NCI-60 cell line screen, 48 h
A549 = system: A549
COLO 205 = system: COLO 205
NCI-H23 = system: NCI-H23
DLD-1 = system: DLD-1
NCI-H522 = system: NCI-H522
CCRF-CEM = system: CCRF-CEM
NCI-H226 = system: NCI-H226
OVCAR-3 = system: OVCAR-3
UACC-62 = system: UACC-62
ACHN = system: ACHN
786-0 = system: 786-0
HOP-92 = system: HOP-92
UACC-257 = system: UACC-257
OVCAR-4 = system: OVCAR-4
SK-MEL-5 = system: SK-MEL-5
OVCAR-5 = system: OVCAR-5
LOX IMVI = system: LOX IMVI

SMILES | GI50 (A549) | GI50 (COLO 205) | GI50 (NCI-H23) | GI50 (DLD-1) | GI50 (NCI-H522) | GI50 (CCRF-CEM) | GI50 (NCI-H226) | GI50 (OVCAR-3) | GI50 (UACC-62) | GI50 (ACHN) | GI50 (786-0) | GI50 (HOP-92) | GI50 (UACC-257) | GI50 (OVCAR-4) | GI50 (SK-MEL-5) | GI50 (OVCAR-5) | GI50 (LOX IMVI)
O=c1[nH]c(C2CCCCC2)nc2c(Cl)cccc12 | > 100 µM (inactive) | > 100 µM (inactive) | > 100 µM (inactive) | > 100 µM (inactive) | > 100 µM (inactive) | > 100 µM (inactive) | > 100 µM (inactive) | > 100 µM (inactive) | > 100 µM (inactive) | > 100 µM (inactive) | > 100 µM (inactive) | > 100 µM (inactive) | > 100 µM (inactive) | > 100 µM (inactive) | > 100 µM (inactive) | > 100 µM (inactive) | 
O=c1[nH]c(=O)n(C2CC(O)C(CO)O2)cc1C(F)(C(F)(F)F)C(F)(F)F (configuration not stated) |  | 71 µM (inactive) | > 100 µM (inactive) | > 100 µM (inactive) | 45.2 µM (inactive) | > 100 µM (inactive) | > 100 µM (inactive) | > 100 µM (inactive) | > 100 µM (inactive) | > 100 µM (inactive) | > 100 µM (inactive) | > 100 µM (inactive) | > 100 µM (inactive) | > 100 µM (inactive) | > 100 µM (inactive) | > 100 µM (inactive) | > 100 µM (inactive)
CN(C)c1ccc(/C=c2\sc3nnc(-c4ccco4)n3c2=O)cc1 | > 100 µM (inactive) | > 100 µM (inactive) | > 100 µM (inactive) | > 100 µM (inactive) | > 100 µM (inactive) | > 100 µM (inactive) | > 100 µM (inactive) | > 100 µM (inactive) | > 100 µM (inactive) |  | > 100 µM (inactive) | > 100 µM (inactive) | 16.7 µM (inactive) | > 100 µM (inactive) | > 100 µM (inactive) | > 100 µM (inactive) | > 100 µM (inactive)
Cn1c(=O)c2[nH]cnc2n(CC(=O)O)c1=O | > 100 µM (inactive) | > 100 µM (inactive) | > 100 µM (inactive) | > 100 µM (inactive) | > 100 µM (inactive) | > 100 µM (inactive) | > 100 µM (inactive) | > 100 µM (inactive) | > 100 µM (inactive) | > 100 µM (inactive) | > 100 µM (inactive) | > 100 µM (inactive) |  |  | > 100 µM (inactive) | > 100 µM (inactive) | 
Nc1nc(NCCO)c(N=O)c(=O)[nH]1 | > 100 µM (inactive) | > 100 µM (inactive) |  | > 100 µM (inactive) | > 100 µM (inactive) | > 100 µM (inactive) | > 100 µM (inactive) | > 100 µM (inactive) | > 100 µM (inactive) | > 100 µM (inactive) | > 100 µM (inactive) | > 100 µM (inactive) | > 100 µM (inactive) | > 100 µM (inactive) | > 100 µM (inactive) | > 100 µM (inactive) | > 100 µM (inactive)
O=C(Cc1c(C(=O)Nc2ccccc2)sc(C(=O)Nc2ccccc2)c1CC(=O)Nc1ccccc1)Nc1ccccc1 | > 100 µM (inactive) | > 100 µM (inactive) | > 100 µM (inactive) | > 100 µM (inactive) | > 100 µM (inactive) | > 100 µM (inactive) | > 100 µM (inactive) | > 100 µM (inactive) | > 100 µM (inactive) | > 100 µM (inactive) | > 100 µM (inactive) | > 100 µM (inactive) | > 100 µM (inactive) | > 100 µM (inactive) | > 100 µM (inactive) | > 100 µM (inactive) | > 100 µM (inactive)
CC(C)(C)c1cc(C(O)(C(F)(F)F)C(F)(F)F)c2c(c1)C(C(F)(F)F)(C(F)(F)F)OC(C(C)(C)C)N2 (configuration not stated) | 3.28 µM (inactive) | 3.3 µM (inactive) | 2.64 µM (inactive) | 4.21 µM (inactive) | 2.75 µM (inactive) |  | 2.7 µM (inactive) | 2.58 µM (inactive) | 3.56 µM (inactive) | 2.72 µM (inactive) | 3.24 µM (inactive) | < 0.01 µM (active) | 2.81 µM (inactive) | 6.28 µM (inactive) | 1.57 µM (inactive) | 10.9 µM (inactive) | 
CCOC(=O)c1sc2c(C(=O)OCC)n3cc(C)cc(C)c3c2c1O | > 100 µM (inactive) | > 100 µM (inactive) | > 100 µM (inactive) | > 100 µM (inactive) | 80.4 µM (inactive) | > 100 µM (inactive) | > 100 µM (inactive) | 63.2 µM (inactive) | > 100 µM (inactive) | > 100 µM (inactive) | > 100 µM (inactive) | 76.4 µM (inactive) |  | > 100 µM (inactive) | > 100 µM (inactive) | > 100 µM (inactive) | > 100 µM (inactive)
NC(=O)NNC(=O)NC12CC3CC(CC(C3)C1)C2 | > 100 µM (inactive) | > 100 µM (inactive) | > 100 µM (inactive) | > 100 µM (inactive) | > 100 µM (inactive) | > 100 µM (inactive) | > 100 µM (inactive) | > 100 µM (inactive) | > 100 µM (inactive) | > 100 µM (inactive) | > 100 µM (inactive) | > 100 µM (inactive) | > 100 µM (inactive) | > 100 µM (inactive) | > 100 µM (inactive) | > 100 µM (inactive) | > 100 µM (inactive)
COC(=O)/C=C(\C(=O)OC)c1c2c3c(cc(OC)c(OC)c3c3ccccc13)CCN2C | 24.4 µM (inactive) | 14.7 µM (inactive) | 42.2 µM (inactive) | 22.3 µM (inactive) | 23.1 µM (inactive) | 24 µM (inactive) | 29.6 µM (inactive) | 28.2 µM (inactive) | 24.2 µM (inactive) | 40.6 µM (inactive) | 70.8 µM (inactive) | 44.9 µM (inactive) | 30.5 µM (inactive) |  | 13.8 µM (inactive) | > 100 µM (inactive) | 49.5 µM (inactive)
COc1ccc2c(c1)C(O)(C(F)(F)F)c1cc(C(=O)C(F)(F)F)c3ccccc3c1N2 (configuration not stated) | 11.6 µM (inactive) | 6.75 µM (inactive) | 12.4 µM (inactive) | 10.2 µM (inactive) | 7.74 µM (inactive) | 7.94 µM (inactive) | 12.8 µM (inactive) | 14.9 µM (inactive) | 4.46 µM (inactive) | 5.47 µM (inactive) | 13.5 µM (inactive) | 16 µM (inactive) | 13.5 µM (inactive) | 10.5 µM (inactive) | 13.7 µM (inactive) | 14.4 µM (inactive) | 4.99 µM (inactive)
O=C1Cc2c([nH]c3ccccc23)-c2cc(Br)ccc2N1 | > 100 µM (inactive) | > 100 µM (inactive) | > 100 µM (inactive) | > 100 µM (inactive) | > 100 µM (inactive) | > 100 µM (inactive) | > 100 µM (inactive) | > 100 µM (inactive) |  | > 100 µM (inactive) | > 100 µM (inactive) | > 100 µM (inactive) | > 100 µM (inactive) | > 100 µM (inactive) | > 100 µM (inactive) | > 100 µM (inactive) | > 100 µM (inactive)
